Reference: the supplement of paper PMC13380429
± gives the standard deviation of the averaged measurements.

Key:
Conditions in all cases: 72 h
Calu-3 [1] = assay: relative viability EC50 (midpoint between 100% and the lowest measured viability); higher = less toxic
HepG2 [2] = assay: as above
Caco-2 [3] = assay: as above
Vero E6 [4] = assay: as above
Calu-3 [5] = assay: drug sensitivity score (DSS) for viability; higher = more toxic; extreme values may be limits of the assay
HepG2 [6] = assay: as above
Caco-2 [7] = assay: as above
Vero E6 [8] = assay: as above
Calu-3 [9] = assay: cell viability relative to DMSO; higher = less toxic
HepG2 [10] = assay: as above
Caco-2 [11] = assay: as above
Vero E6 [12] = assay: as above
U2OS [13] = assay: relative viability EC50 (midpoint between 100% and the lowest measured viability); higher = less toxic
U2OS [14] = assay: drug sensitivity score (DSS) for viability; higher = more toxic; extreme values may be limits of the assay
U2OS [15] = assay: cell viability relative to DMSO; higher = less toxic

| SMILES | relative viability EC50 (Calu-3 [1]) [µM] | relative viability EC50 (HepG2 [2]) [µM] | relative viability EC50 (Caco-2 [3]) [µM] | relative viability EC50 (Vero E6 [4]) [µM] | drug sensitivity score (Calu-3 [5]) | drug sensitivity score (HepG2 [6]) | drug sensitivity score (Caco-2 [7]) | drug sensitivity score (Vero E6 [8]) | cell viability (Calu-3 [9]; 1 nM) [%] | cell viability (Calu-3 [9]; 10 nM) [%] | cell viability (Calu-3 [9]; 100 nM) [%] | cell viability (Calu-3 [9]; 1000 nM) [%] | cell viability (Calu-3 [9]; 10000 nM) [%] | cell viability (HepG2 [10]; 1 nM) [%] | cell viability (HepG2 [10]; 10 nM) [%] | cell viability (HepG2 [10]; 100 nM) [%] | cell viability (HepG2 [10]; 1000 nM) [%] | cell viability (HepG2 [10]; 10000 nM) [%] | cell viability (Caco-2 [11]; 1 nM) [%] | cell viability (Caco-2 [11]; 10 nM) [%] | cell viability (Caco-2 [11]; 100 nM) [%] | cell viability (Caco-2 [11]; 1000 nM) [%] | cell viability (Caco-2 [11]; 10000 nM) [%] | cell viability (Vero E6 [12]; 1 nM) [%] | cell viability (Vero E6 [12]; 10 nM) [%] | cell viability (Vero E6 [12]; 100 nM) [%] | cell viability (Vero E6 [12]; 1000 nM) [%] | cell viability (Vero E6 [12]; 10000 nM) [%] | relative viability EC50 (U2OS [13]) [µM] | drug sensitivity score (U2OS [14]) | cell viability (U2OS [15]; 1 nM) [%] | cell viability (U2OS [15]; 10 nM) [%] | cell viability (U2OS [15]; 100 nM) [%] | cell viability (U2OS [15]; 1000 nM) [%] | cell viability (U2OS [15]; 10000 nM) [%] |
| --- | --- | --- | --- | --- | --- | --- | --- | --- | --- | --- | --- | --- | --- | --- | --- | --- | --- | --- | --- | --- | --- | --- | --- | --- | --- | --- | --- | --- | --- | --- | --- | --- | --- | --- | --- |
| COc1cc(NS(=O)(=O)c2ccc(N)cc2)nc(OC)n1 [sulphadimethoxine] | > 10 | > 10 | > 10 | > 10 | 0 | 0 | 0 | 0 | 103 | 90.3 | 91.8 | 98.9 | 94 | 106 | 108 | 122 | 98.9 | 105 | 109 | 99.9 | 103 | 100 | 99.9 | 100 | 97.8 | 98.8 | 103 | 97.5 |  |  |  |  |  |  |  |
| CC1CCN(CCCC(=O)c2ccc(F)cc2)CC1 [melperone] |  | > 10 | > 10 | > 10 |  | 0 | 0 | 0 |  |  |  |  |  | 104 | 96.5 | 102 | 99.7 | 101 | 99.3 | 103 | 98.3 | 93.5 | 89.9 | 100 | 98 | 98.9 | 93 | 100 | > 10 | 0 | 99.4 | 98.6 | 95.5 | 100 | 93.7 |
| O=S(=O)(O)CCS [mesna] | > 10 |  | > 10 | > 10 | 0 |  | 0 | 0 | 98.4 | 91.8 | 104 | 95.9 | 103 |  |  |  |  |  | 114 | 102 | 104 | 97.2 | 104 | 103 | 102 | 107 | 98.5 | 101 |  |  |  |  |  |  |  |
| COc1ccc2[nH]cc(CCNC(C)=O)c2c1 [melatonin] | > 10 |  | > 10 |  | 0 |  | 0 |  | 101 | 105 | 96.8 | 109 | 105 |  |  |  |  |  | 107 | 88.8 | 101 | 102 | 99.5 |  |  |  |  |  |  |  |  |  |  |  |  |
| CC(C)c1ccc(-c2cc(=O)c3ccccc3o2)cc1 [MN-64] |  |  | > 10 |  | 1.7 | 2.5 | 1.9 | 2.2 | 113 | 105 | 97.2 | 96.1 | 72.7 | 91.9 | 97.6 | 94.8 | 94.8 | 65.1 | 105 | 98.8 | 105 | 84.9 | 81.1 | 96.6 | 94.2 | 98.9 | 98 | 61.5 | > 10 | 0.2 | 102 | 99.4 | 102 | 95.2 | 88.2 |
| O=C1NC(=O)/C(=C/c2cccc(C(F)(F)F)c2)S1 [SMI-4a] | > 10 | > 10 | > 10 | > 10 | 0 | 0 | 0 | 0 | 101 | 98.1 | 95.4 | 100 | 97.4 | 96.4 | 112 | 91 | 97.4 | 105 | 97.7 | 101 | 105 | 104 | 92.7 | 104 | 101 | 99.1 | 101 | 95.9 |  |  |  |  |  |  |  |
| CN(C)/N=N/c1ccc(C(=O)O)cc1 [CB-10-277] |  | > 10 | > 10 | > 10 |  | 0 | 0 | 0 |  |  |  |  |  | 102 | 95.9 | 113 | 102 | 105 | 95.8 | 97.3 | 101 | 96.6 | 102 | 98.7 | 98.3 | 97.6 | 97.2 | 106 | > 10 | 0 | 96.6 | 104 | 98.1 | 99.9 | 104 |
| NCCCNCCSP(=O)(O)O [amifostine] | > 10 | > 10 | > 10 | > 10 | 0 | 0 | 0 | 0 | 95.8 | 101 | 101 | 100 | 98 | 103 | 100 | 96.6 | 93 | 98.2 | 88.8 | 100 | 86.4 | 100 | 92.7 | 104 | 108 | 106 | 97.3 | 102 |  |  |  |  |  |  |  |
| O=c1cc(N2CCN(c3cccc(C(F)(F)F)c3)CC2)[nH]c(=O)n1C1CCCCC1 [ML179] |  | > 10 | > 10 | > 10 |  | 2.7 | 0 | 0 |  |  |  |  |  | 100 | 105 | 94.4 | 82.6 | 77.7 | 95.5 | 96.8 | 97.2 | 98 | 96.5 | 102 | 101 | 98.4 | 100 | 99.7 | > 10 | 0 | 101 | 97.5 | 100 | 97.9 | 101 |
| COc1cc(OC2CCN(C)CC2)ccc1Nc1ncc2c(n1)n(C1CCCC1)c(=O)n2C [AZ3146] |  | 2.74 | > 10 | 3.1 | 3.8 | 4.5 | 1.5 | 3.2 | 95.5 | 87.4 | 93.6 | 84.4 | 62.4 | 106 | 97.9 | 102 | 96.1 | 28.8 | 103 | 101 | 104 | 95 | 76.8 | 111 | 104 | 103 | 99.4 | 41.8 |  | 3.5 | 100 | 104 | 101 | 92.2 | 57 |
| O=C(NCc1cccc(O)c1)Nc1nc(-c2ccncc2)cs1 [RKI-1447] | > 10 |  | > 10 |  | 0 | 2.05 ± 1.1 | 0.65 ± 0.49 | 5.05 ± 1.8 | 97.9 | 128 | 146 | 148 | 144 | 94.2 ± 6 | 108 ± 9.9 | 101 ± 3.4 | 91.95 ± 0.49 | 73.1 ± 8.9 | 97.8 ± 5.2 | 97 ± 0.14 | 94.8 ± 6.2 | 96.6 ± 1.1 | 81.3 ± 0.14 | 99.5 ± 3.7 | 100 ± 4.4 | 91.1 ± 13 | 76.1 ± 0.42 | 73.4 ± 0.28 |  | 3.6 ± 0.57 | 98.8 ± 2.4 | 99.3 ± 2.8 | 101 ± 4.9 | 87.5 ± 3.1 | 61.8 ± 2.3 |
| CC(C)=CCC/C(C)=C/CC/C(C)=C/C=C/C(C)=C/C(=O)O [peretinoin] | > 10 | > 10 | > 10 | > 10 | 0 | 0 | 0 | 0 | 107 | 104 | 105 | 114 | 97.6 | 101 | 94.3 | 90.9 | 103 | 104 | 104 | 98.9 | 101 | 97.9 | 102 | 101 | 96.1 | 106 | 93.3 | 104 |  |  |  |  |  |  |  |
| N#Cc1ccc(Oc2ccc3c(c2)COB3O)cc1 [crisaborole] | > 10 | > 10 | > 10 | > 10 | 0 | 0 | 0 | 0 | 89.8 | 94.6 | 96.7 | 94.3 | 108 | 106 | 105 | 112 | 104 | 95.8 | 104 | 104 | 107 | 98.8 | 101 | 103 | 105 | 101 | 102 | 98.1 |  |  |  |  |  |  |  |
| CCOC(=O)CC(=O)N1CCSC1COc1ccccc1OC (stereo not drawn) [moguisteine] | > 10 | > 10 | > 10 | > 10 | 0 | 0 | 0 | 0 | 99.2 | 103 | 99.3 | 97.6 | 92.8 | 93.7 | 97 | 99.2 | 112 | 104 | 98.6 | 98.3 | 96.3 | 105 | 98.4 | 99.7 | 101 | 100 | 105 | 105 |  |  |  |  |  |  |  |
| Cc1cn(-c2cc(NC(=O)c3ccc(C)c(Nc4nccc(-c5cccnc5)n4)c3)cc(C(F)(F)F)c2)cn1 [nilotinib] | > 10 |  | > 10 | > 10 | 0 |  | 0 | 0 | 98.8 | 106 | 111 | 90.1 | 100 |  |  |  |  |  | 101 | 114 | 97.9 | 106 | 88.1 | 107 | 98.2 | 103 | 103 | 106 |  |  |  |  |  |  |  |
| S=P(N1CC1)(N1CC1)N1CC1 [thiotepa] | > 10 | > 10 | > 10 | > 10 | 0 | 0 | 0 | 0 | 91.8 | 95.7 | 97.5 | 90.2 | 89.5 | 104 | 96.6 | 102 | 100 | 107 | 94.7 | 101 | 94.8 | 98.5 | 91.1 | 108 | 98.9 | 106 | 97.3 | 102 |  |  |  |  |  |  |  |
